Measured values: PMC5618656, “Interference of Paraben Compounds with Estrogen Metabolism by Inhibition of 17β-Hydroxysteroid Dehydrogenases” (International Journal of Molecular Sciences, 2017)
Like-named read-outs stand apart in the source and are kept apart here.

Columns and labels:
[1] = molecular target: T1, 17β-hydroxysteroid dehydrogenase 1 (17β-HSD1) (Homo sapiens, UniProt P14061); assay: radiolabeled estrone to estradiol conversion in lysates of transfected HEK-293 cells; also intact COV434 cells (IC50 […]); type: biochemical
T1 construct: gene HSD17B1
T1 sequence (P14061 2-328): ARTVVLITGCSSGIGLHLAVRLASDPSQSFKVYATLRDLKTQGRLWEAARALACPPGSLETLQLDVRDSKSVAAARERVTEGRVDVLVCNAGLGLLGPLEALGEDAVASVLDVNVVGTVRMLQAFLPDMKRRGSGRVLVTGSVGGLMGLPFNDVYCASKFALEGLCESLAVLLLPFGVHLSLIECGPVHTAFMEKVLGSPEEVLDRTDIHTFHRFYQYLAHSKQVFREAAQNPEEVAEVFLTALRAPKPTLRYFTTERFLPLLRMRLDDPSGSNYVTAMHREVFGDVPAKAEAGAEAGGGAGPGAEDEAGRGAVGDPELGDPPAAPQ

[2] = molecular target: T2, 17β-hydroxysteroid dehydrogenase 2 (17β-HSD2) (Homo sapiens, UniProt P37059); assay: radiolabeled estradiol conversion in lysates of transfected HEK-293 cells at […]; also significant at […]; type: cell-based; conditions: HEK293
T2 construct: gene HSD17B2
T2 sequence (P37059 1-387): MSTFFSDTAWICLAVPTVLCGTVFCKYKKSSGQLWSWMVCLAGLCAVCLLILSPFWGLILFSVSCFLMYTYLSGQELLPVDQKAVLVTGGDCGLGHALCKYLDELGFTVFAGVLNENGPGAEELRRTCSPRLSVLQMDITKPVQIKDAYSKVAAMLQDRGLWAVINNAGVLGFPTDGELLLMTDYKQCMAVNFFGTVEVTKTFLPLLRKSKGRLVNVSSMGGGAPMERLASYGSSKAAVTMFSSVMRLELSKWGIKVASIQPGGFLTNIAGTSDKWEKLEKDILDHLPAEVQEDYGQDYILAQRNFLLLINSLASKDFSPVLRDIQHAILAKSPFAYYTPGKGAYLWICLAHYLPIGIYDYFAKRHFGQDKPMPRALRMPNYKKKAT

[3] = molecular target: T1, 17β-hydroxysteroid dehydrogenase 1 (17β-HSD1); assay: biochemical; set-up: species or system HEK-293 (transiently transfected); Radiolabeled estrone to estradiol conversion (200 nM, NADPH) in lysates of 17β-HSD1-transfected cells; TLC and scintillation counting
Protocol: Lysate activity assays were performed as previously described. Briefly, HEK-293 cells (ATCC) were transiently transfected with expression constructs for human 17β-HSD1 or 17β-HSD2 using the calcium phosphate precipitation method. Lysates of HEK-293 cells expressing 17β-HSD1 or 17β-HSD2 were incubated at 37 °C for 10 min in TS2 buffer (100 mM NaCl, 1 mM EDTA, 1 mM EGTA, 250 mM sucrose, 1 mM MgCl2, 20 mM Tris-HCl, pH 7.4), containing either the inhibitor at the respective concentration or solvent (0.2% DMSO). 17β-HSD1 activity was determined in the presence of 200 nM estrone, including 50 nCi of [2,4,6,7-^3H]-estrone and 500 μM NADPH. Whereas, the 17β-HSD2 activity was performed in the presence of 200 nM estrone, including 50 nCi of [2,4,6,7-^3H]-estradiol and 500 μM NAD+.  Figure 6 (A) Inhibition of 17β-HSD1 activity by parabens. 17β-HSD1 activity was measured in lysates of transiently-transfected HEK-293 cells, using DMSO as a negative, and apigenin as a positive, control. Statistical analyses were performed using one-way ANOVA followed by a Dunnett post-hoc test. […] (B) Concentration-dependent inhibition of 17β-HSD1 by [compound left out]- and heptylparaben. The conversion of estrone to estradiol was measured in lysates of HEK-293 cells transfected with 17β-HSD1 and (C) in intact human COV434 granulosa cells endogenously expressing 17β-HSD1. Results represent the mean ± SD of three independent experiments. To determine 17β-HSD1 activity in COV434 cells, cells were seeded (50,000) into 96-well plates and incubated for 90 min with 200 nM estrone, including 50 nCi of [2,4,6,7-^3H]-estrone in serum-free charcoal treated media containing either the inhibitor at the respective concentration or solvent (0.1% DMSO). Both activity essays were stopped by adding a 1:1 ratio of 2 mM unlabeled estrone and estradiol in methanol. Radiolabeled steroids were obtained from Perkin-Elmer (Boston, MA, USA) whereas normal steroids and cofactors were purchased from Sigma-Aldrich. Estrogens were separated by thin layer chromatography and samples were analyzed using scintillation counting. All data were collected from at least three independent measurements.

[4] = molecular target: T2, 17β-hydroxysteroid dehydrogenase 2 (17β-HSD2); assay: radiolabeled estradiol to estrone conversion in lysates of HEK-293 cells transfected with human […]β-HSD2; type: biochemical
[5] = molecular target: T1, 17β-hydroxysteroid dehydrogenase 1 (17β-HSD1); assay: radiolabeled estrone to estradiol conversion in lysates of transfected HEK-293 cells; also intact COV434 cells (IC50 […]); type: biochemical; remark: listed apart in the source
[6] = molecular target: T2, 17β-hydroxysteroid dehydrogenase 2 (17β-HSD2); assay: radiolabeled estradiol conversion in lysates of transfected HEK-293 cells, single concentration […]; type: cell-based; conditions: HEK293
[7] = molecular target: T2, 17β-hydroxysteroid dehydrogenase 2 (17β-HSD2); assay: biochemical; set-up: species or system HEK-293 (transiently transfected); Radiolabeled estradiol to estrone conversion (200 nM, NAD+) in lysates of 17β-HSD2-transfected cells; TLC and scintillation counting
Protocol: Lysate activity assays were performed as previously described. Briefly, HEK-293 cells (ATCC) were transiently transfected with expression constructs for human 17β-HSD1 or 17β-HSD2 using the calcium phosphate precipitation method. Lysates of HEK-293 cells expressing 17β-HSD1 or 17β-HSD2 were incubated at 37 °C for 10 min in TS2 buffer (100 mM NaCl, 1 mM EDTA, 1 mM EGTA, 250 mM sucrose, 1 mM MgCl2, 20 mM Tris-HCl, pH 7.4), containing either the inhibitor at the respective concentration or solvent (0.2% DMSO). 17β-HSD1 activity was determined in the presence of 200 nM estrone, including 50 nCi of [2,4,6,7-^3H]-estrone and 500 μM NADPH. Whereas, the 17β-HSD2 activity was performed in the presence of 200 nM estrone, including 50 nCi of [2,4,6,7-^3H]-estradiol and 500 μM NAD+.  Figure 4 (A) Inhibition of estrone formation by parabens in human embryonic kidney (HEK-293) cell lysates expressing human 17β-HSD2. The conversion of estradiol to estrone was measured in lysates of HEK-293 cells transiently transfected with 17β-HSD2 in the presence of 200 nM radiolabeled estradiol and parabens or paraben-like compounds at a final concentration of 20 µM. 17β-HSD2 inhibitor BM13 served as positive control (compound 22 in [18]). Statistical analyses were performed using one-way analysis of variance (ANOVA) test followed by a Dunnett post-hoc test. […] (B) Concentration-dependent inhibition of 17β-HSD2 by ethylparaben and ethyl vanillate. Results represent the mean ± standard deviation (SD) of three independent measurements. To determine 17β-HSD1 activity in COV434 cells, cells were seeded (50,000) into 96-well plates and incubated for 90 min with 200 nM estrone, including 50 nCi of [2,4,6,7-^3H]-estrone in serum-free charcoal treated media containing either the inhibitor at the respective concentration or solvent (0.1% DMSO). Both activity essays were stopped by adding a 1:1 ratio of 2 mM unlabeled estrone and estradiol in methanol. Radiolabeled steroids were obtained from Perkin-Elmer (Boston, MA, USA) whereas normal steroids and cofactors were purchased from Sigma-Aldrich. Estrogens were separated by thin layer chromatography and samples were analyzed using scintillation counting. All data were collected from at least three independent measurements.

[8] = molecular target: T1, 17β-hydroxysteroid dehydrogenase 1 (17β-HSD1); assay: radiolabeled estrone conversion in lysates of transfected HEK-293 cells, single concentration […]; type: cell-based; conditions: HEK293

SMILES: CCCCCCOC(=O)c1ccc(O)cc1 [6-P, hexylparaben]
- IC50 [1]: 2.6 µM
- inhibition at 20 µM [2]: 58%
- inhibition at 20 µM [3]: 80 ± 5%

SMILES: CCOC(=O)c1ccc(O)c(OC)c1 [ethyl vanillate]
- IC50 [4]: 1.3 µM

SMILES: CCCCCCCOC(=O)c1ccc(O)cc1 [heptylparaben]
- IC50 [5]: 1.8 µM
- inhibition at 20 µM [6]: 76%
- inhibition at 20 µM [3]: 83 ± 6%

SMILES: CCCOC(=O)c1ccc(O)cc1 [propylparaben]
- inhibition at 20 µM [7]: 37 ± 6%
- inhibition at 20 µM [3]: 37 ± 5%

SMILES: O=C(OCc1ccccc1)c1ccc(O)cc1 [benzylparaben]
- inhibition at 20 µM [8]: 67%
- inhibition at 20 µM [6]: 64%

SMILES: CCOC(=O)c1ccc(O)cc1 [2-P, ethylparaben]
- IC50 [4]: 4.6 µM
- inhibition at 20 µM [7]: 74 ± 4%
- inhibition at 20 µM [3]: 7 ± 6%

SMILES: COC(=O)c1ccc(O)cc1 [methylparaben]
- inhibition at 20 µM [7]: 50 ± 6%
- inhibition at 20 µM [3]: 0%

SMILES: O=C(O)c1ccc(O)cc1 [p-hydroxybenzoic acid]
- inhibition at 20 µM [7]: 0%
- inhibition at 20 µM [3]: 7 ± 11%

SMILES: CC(C)COC(=O)c1ccc(O)cc1 [isobutylparaben]
- inhibition at 20 µM [8]: 65%
- inhibition at 20 µM [7]: 53 ± 7%

SMILES: CCCCOC(=O)c1ccc(O)cc1 [butylparaben]
- inhibition at 20 µM [7]: 30 ± 7%
- inhibition at 20 µM [3]: 52 ± 10%

SMILES: O=C(Oc1ccccc1)c1ccc(O)cc1 [phenylparaben]
- inhibition at 20 µM [6]: 64%
- inhibition at 20 µM [3]: 35 ± 1%

SMILES: CC(C)OC(=O)c1ccc(O)cc1 [isopropylparaben]
- inhibition at 20 µM [7]: 60 ± 1%
- inhibition at 20 µM [3]: 32 ± 9%
